This is an account of results in patent publication US20240101957A1, “METHODS AND COMPOSITIONS FOR GENERATING EMBRYOS IN VITRO FROM PLURIPOTENT STEM CELLS” (California Institute of Technology, priority 2022, published 2024).

Common to all, as to type: cell-based
Assay [1] has as its system inducible human embryoids. The assay can be described thus: Formation of organized inducible human embryoids with BMP inhibitor added between days 0-2. Conditions: added between days 0-2 post-aggregation; vs untreated control. As to the method: (§1) To generate the three-dimensional stem cell-derived model of the post-implantation embryo, RSeT cells between 2 and 6 passages post-conversion to RSeT media were passaged as normal. The media for extraembryonic-like cells (induced GATA6, induced GATA6-SOX17 or induced GATA3-AP2γ) was changed to N2B27 with 5% Knockout Serum Replacement and 1 μg/mL DOX on the following day (Day −3). This media was refreshed every 24 hours for 3 days. On Day 0 (the day of aggregation), an Aggrewell dish (34415, STEMCELL Technologies) was prepared by pre-coating with anti-adherence solution (07010, STEMCELL Technologies) and centrifuging at 2000 g for 5 minutes. Wells were washed twice with PBS prior to the addition of experiment media. This media consisted of N2B27 with 5% knockout serum replacement, 1 μg/mL doxycycline, and 10 μM Y-27632. Induced cells and wildtype ESCs were enzymatically dissociated 1 hour after addition of 10 μM Y-27632 to wells containing cells for inducible human embryoid generation. Dissociated cells were pelleted and resuspended in experiment media and placed in gelatin-coated wells for MEF depletion. After 15-30 minutes, cells were counted, mixed, and plated into an Aggrewell dish with a final calculation of 8 wildtype-ESC, 8 hypoblast-like, and 16 trophoblast-like cells plated per microwell in the Aggrewell. […]

Assay [2] concerns human embryo-like model. Nature of the assay: Differentiation of the inner epiblast-like domain (SOX2, CDX2, AP2a immunofluorescence) in treated human embryo-like model. To be noted: treated between 48- and 96-hours post-aggregation; Day 4 and Day 6; compared to untreated control or BMP4 treated structures. On the procedure: as §1
Assay [3] deals with human embryo-like model. Nature of the assay: Number of SOX17/NANOG/AP2γ triple-positive primordial germ cell-like cells in treated embryoids. Conditions: Day 4 embryoids; vs control. As to the method: as §1, with “Aggrewell. At 8 d.p.f., in vitro cultured human embryos had 32:24:228 epiblast:hypoblast:trophoblast cells. Importantly, however, many of the trophoblast cells were not in contact with the inner cell mass-derived tissues or were terminally differentiated. Additionally, inducible GATA6-SOX17 cells in culture proliferated slower than the other two cell populations after doxycycline addition. Therefore, an initial seeding density with: (1) a total cell number similar to that used in mouse models that allowed for successful cell sorting; (2) a ratio of cells that reflected the peri-implantation embryo; and (3) a reduced number of inducible GATA3-AP2γ cells and an increased number of inducible GATA6-SOX17 cells was utilized.” for “Aggrewell.”

“Also recorded” adds a separate entry of the source.

With `c1ccc2c(-c3cnn4cc(-c5ccc(N6CCNCC6)cc5)cnc34)ccnc2c1` [LDN193189], the “formation of organized structures (embryoid formation)” value in assay [1] is given as “blocked formation of organized structures; also recorded: failing to form”. In addition, in the assay on human embryo-like model [2], the “CDX2 and AP2a upregulation in the inner domain” value is “lesser CDX2 and AP2a upregulation”; the “SOX2 expression in the inner domain” value is on record as “increased maintenance of SOX2 expression”. For the same molecule, the “number of primordial germ cell-like cells” value (from here on “number”) in the assay with human embryo-like model [3] is “decreased”.

B1: Activin-A: an agonist of SMAD2.3 signaling (protein, UniProt P08476 311-426, looked up)
Inhibin beta A chain: GLECDGKVNICCKKQFFVSFKDIGWNDWIIAPSGYHANYCEGECPSHIAGTSGSSLSFHSTVINHYRMRGHSPFANLKSCCVPTKLRPMSMLYYDDGQNIIKKDIQNMIVEECGCS
modifications: Inhibin beta A chain
notes: an agonist of SMAD2.3 signaling
As for B1, in the assay with human embryo-like model [3], the “number” value is recorded as “minimal effect”.

B2: BMP4: bone morphogenic protein-4, TGFβ superfamily member (protein, UniProt P12644 293-408, looked up)
Bone morphogenetic protein 4: SPKHHSQRARKKNKNCRRHSLYVDFSDVGWNDWIVAPPGYQAFYCHGDCPFPLADHLNSTNHAIVQTLVNSVNSSIPKACCVPTELSAISMLYLDEYDKVVLKNYQEMVVEGCGCR
Turning to B2, the “number” value in the assay with human embryo-like model [3] is given as “minimal effect”.
